According to PubChem BioAssay AID1918998 (Molecular Pharmacology Branch, DTP, NCI, 2023):

Test system: 521955-158-R2-J5-PDC complex spheroid growth
Assay: Anticancer human tumor 521955-158-R2-J5-PDC patient-derived pancreatic carcinoma cell line growth inhibition [AhR]
Details: for IC50: curve of first compound; for viability, T/C: stronger effect = lower value; active means viability on the fitted dose curve at most 10% of control; inactive means the rest
In short: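 Complex tumor spheroids co-cultured with HUVEC and human MSC stroma; AhR antagonists tested in combination with standard-of-care and investigational agents. Top concentration at or near clinical Cmax (else 10 microM), half-log dilutions; growth expressed as percent test/control.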

[1] = second compound 0.1 µM, first compound 0.0316 µM
[2] = second compound 0.1 µM, first compound 0.1 µM
[3] = second compound 0.1 µM, first compound 0.316 µM
[4] = second compound 0.1 µM, first compound 1 µM
[5] = second compound 0.1 µM, first compound 3.16 µM
[6] = second compound 0.1 µM, first compound 10 µM
[7] = second compound 0.316 µM, first compound 0.0316 µM
[8] = second compound 0.316 µM, first compound 0.1 µM
[9] = second compound 0.316 µM, first compound 0.316 µM
[10] = second compound 0.316 µM, first compound 1 µM
[11] = second compound 0.316 µM, first compound 3.16 µM
[12] = second compound 0.316 µM, first compound 10 µM
[13] = second compound 1 µM, first compound 0.0316 µM
[14] = second compound 1 µM, first compound 0.1 µM
[15] = second compound 1 µM, first compound 0.316 µM
[16] = second compound 1 µM, first compound 1 µM
[17] = second compound 1 µM, first compound 3.16 µM
[18] = second compound 1 µM, first compound 10 µM
[19] = second compound 3.16 µM, first compound 0.0316 µM
[20] = second compound 3.16 µM, first compound 0.1 µM
[21] = second compound 3.16 µM, first compound 0.316 µM
[22] = second compound 3.16 µM, first compound 1 µM
[23] = second compound 3.16 µM, first compound 3.16 µM
[24] = second compound 3.16 µM, first compound 10 µM
[25] = second compound 10 µM, first compound 0.0316 µM
[26] = second compound 10 µM, first compound 0.1 µM
[27] = second compound 10 µM, first compound 0.316 µM
[28] = second compound 10 µM, first compound 1 µM
[29] = second compound 10 µM, first compound 3.16 µM
[30] = second compound 10 µM, first compound 10 µM
[31] = second compound 0.1 µM, first compound 0.00949 µM
[32] = second compound 0.1 µM, first compound 0.03 µM
[33] = second compound 0.1 µM, first compound 0.0949 µM
[34] = second compound 0.1 µM, first compound 0.3 µM
[35] = second compound 0.316 µM, first compound 0.00949 µM
[36] = second compound 0.316 µM, first compound 0.03 µM
[37] = second compound 0.316 µM, first compound 0.0949 µM
[38] = second compound 0.316 µM, first compound 0.3 µM
[39] = second compound 1 µM, first compound 0.00949 µM
[40] = second compound 1 µM, first compound 0.03 µM
[41] = second compound 1 µM, first compound 0.0949 µM
[42] = second compound 1 µM, first compound 0.3 µM
[43] = second compound 3.16 µM, first compound 0.00949 µM
[44] = second compound 3.16 µM, first compound 0.03 µM
[45] = second compound 3.16 µM, first compound 0.0949 µM
[46] = second compound 3.16 µM, first compound 0.3 µM
[47] = second compound 10 µM, first compound 0.00949 µM
[48] = second compound 10 µM, first compound 0.03 µM
[49] = second compound 10 µM, first compound 0.0949 µM
[50] = second compound 10 µM, first compound 0.3 µM
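Wherever viability, T/C is given: spheroids mix tumor cells with HUVEC endothelium and human MSC stroma; luminescence taken as viability surrogate after a week of drug exposure.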

CC1(C)CCC(CN2CCN(c3ccc(C(=O)NS(=O)(=O)c4ccc(NCC5CCOCC5)c([N+](=O)[O-])c4)c(Oc4cnc5[nH]ccc5c4)c3)CC2)=C(c2ccc(Cl)cc2)C1 + Cc1ccccc1N=Nc1ccc(NC(=O)c2ccnn2C)c(C)c1
> 10000 nM: IC50 (second compound 0.1 µM) | IC50 (second compound 0.316 µM) | IC50 (second compound 1 µM) | IC50 (second compound 3.16 µM) | IC50 (second compound 10 µM)
inactive: viability, T/C [1] 114% | viability, T/C [2] 140% | viability, T/C [3] 96.5% | viability, T/C [4] 102% | viability, T/C [5] 104% | viability, T/C [6] 103% | viability, T/C [7] 110% | viability, T/C [8] 99.9% | viability, T/C [9] 116% | viability, T/C [10] 108% | viability, T/C [11] 107% | viability, T/C [12] 96% | viability, T/C [13] 120% | viability, T/C [14] 144% | viability, T/C [15] 133% | viability, T/C [16] 116% | viability, T/C [17] 98.8% | viability, T/C [18] 94.5% | viability, T/C [19] 135% | viability, T/C [20] 155% | viability, T/C [21] 165% | viability, T/C [22] 119% | viability, T/C [23] 130% | viability, T/C [24] 84.6% | viability, T/C [25] 166% | viability, T/C [26] 162% | viability, T/C [27] 158% | viability, T/C [28] 151% | viability, T/C [29] 108% | viability, T/C [30] 72.6%

CCN(c1cc(-c2ccc(CN3CCOCC3)cc2)cc(C(=O)NCc2c(C)cc(C)[nH]c2=O)c1C)C1CCOCC1 + Cc1ccccc1N=Nc1ccc(NC(=O)c2ccnn2C)c(C)c1
inactive: viability, T/C [31] 123% | viability, T/C [32] 110% | viability, T/C [33] 103% | viability, T/C [34] 89.1% | viability, T/C (second compound 0.1 µM, first compound 0.949 µM) 74.4% | viability, T/C (second compound 0.1 µM, first compound 3 µM) 79.9% | viability, T/C [35] 111% | viability, T/C [36] 106% | viability, T/C [37] 110% | viability, T/C [38] 83.1% | viability, T/C (second compound 0.316 µM, first compound 0.949 µM) 76.6% | viability, T/C (second compound 0.316 µM, first compound 3 µM) 84.3% | viability, T/C [39] 96.6% | viability, T/C [40] 113% | viability, T/C [41] 97.2% | viability, T/C [42] 83.6% | viability, T/C (second compound 1 µM, first compound 0.949 µM) 95.7% | viability, T/C (second compound 1 µM, first compound 3 µM) 87.6% | viability, T/C [43] 126% | viability, T/C [44] 128% | viability, T/C [45] 128% | viability, T/C [46] 125% | viability, T/C (second compound 3.16 µM, first compound 0.949 µM) 102% | viability, T/C (second compound 3.16 µM, first compound 3 µM) 112% | viability, T/C [47] 164% | viability, T/C [48] 153% | viability, T/C [49] 166% | viability, T/C [50] 150% | viability, T/C (second compound 10 µM, first compound 0.949 µM) 126% | viability, T/C (second compound 10 µM, first compound 3 µM) 122%
> 3000 nM: IC50 (second compound 0.1 µM) | IC50 (second compound 0.316 µM) | IC50 (second compound 1 µM) | IC50 (second compound 3.16 µM) | IC50 (second compound 10 µM)

Cn1ncnc1C1c2n[nH]c(=O)c3cc(F)cc(c23)NC1c1ccc(F)cc1 (stereo not given) + Cc1ccccc1N=Nc1ccc(NC(=O)c2ccnn2C)c(C)c1
inactive: viability, T/C (second compound 0.1 µM, first compound 0.000316 µM) 110% | viability, T/C (second compound 0.1 µM, first compound 0.001 µM) 115% | viability, T/C (second compound 0.1 µM, first compound 0.00316 µM) 108% | viability, T/C (second compound 0.1 µM, first compound 0.01 µM) 103% | viability, T/C [1] 105% | viability, T/C [2] 75.4% | viability, T/C (second compound 0.316 µM, first compound 0.000316 µM) 111% | viability, T/C (second compound 0.316 µM, first compound 0.001 µM) 119% | viability, T/C (second compound 0.316 µM, first compound 0.00316 µM) 108% | viability, T/C (second compound 0.316 µM, first compound 0.01 µM) 98.5% | viability, T/C [7] 97.8% | viability, T/C [8] 89.1% | viability, T/C (second compound 1 µM, first compound 0.000316 µM) 111% | viability, T/C (second compound 1 µM, first compound 0.001 µM) 107% | viability, T/C (second compound 1 µM, first compound 0.00316 µM) 138% | viability, T/C (second compound 1 µM, first compound 0.01 µM) 118% | viability, T/C [13] 118% | viability, T/C [14] 115% | viability, T/C (second compound 3.16 µM, first compound 0.000316 µM) 140% | viability, T/C (second compound 3.16 µM, first compound 0.001 µM) 150% | viability, T/C (second compound 3.16 µM, first compound 0.00316 µM) 142% | viability, T/C (second compound 3.16 µM, first compound 0.01 µM) 154% | viability, T/C [19] 128% | viability, T/C [20] 128% | viability, T/C (second compound 10 µM, first compound 0.000316 µM) 158% | viability, T/C (second compound 10 µM, first compound 0.001 µM) 148% | viability, T/C (second compound 10 µM, first compound 0.00316 µM) 158% | viability, T/C (second compound 10 µM, first compound 0.01 µM) 146% | viability, T/C [25] 143% | viability, T/C [26] 141%
> 100 nM: IC50 (second compound 0.1 µM) | IC50 (second compound 0.316 µM) | IC50 (second compound 1 µM) | IC50 (second compound 3.16 µM) | IC50 (second compound 10 µM)

NS(=O)(=O)OCC1CC(n2ccc3c(NC4CCc5ccccc54)ncnc32)CC1O (stereo not given) + Cc1ccccc1N=Nc1ccc(NC(=O)c2ccnn2C)c(C)c1
821 nM: IC50 (second compound 3.16 µM)
343 nM: IC50 (second compound 10 µM)
inactive: viability, T/C [1] 118% | viability, T/C [2] 115% | viability, T/C [3] 102% | viability, T/C [4] 56.7% | viability, T/C [5] 30.4% | viability, T/C [6] 20.8% | viability, T/C [7] 111% | viability, T/C [8] 105% | viability, T/C [9] 87.5% | viability, T/C [10] 53.5% | viability, T/C [11] 30.9% | viability, T/C [12] 21.9% | viability, T/C [13] 114% | viability, T/C [14] 111% | viability, T/C [15] 88.3% | viability, T/C [16] 47.6% | viability, T/C [17] 29.6% | viability, T/C [18] 23.7% | viability, T/C [19] 137% | viability, T/C [20] 110% | viability, T/C [21] 77.6% | viability, T/C [22] 45.2% | viability, T/C [23] 23.7% | viability, T/C [24] 21.8% | viability, T/C [25] 108% | viability, T/C [26] 91.2% | viability, T/C [27] 50.8% | viability, T/C [28] 32.1% | viability, T/C [29] 25.2% | viability, T/C [30] 25.6%
1220 nM: IC50 (second compound 0.316 µM)
941 nM: IC50 (second compound 1 µM)
1360 nM: IC50 (second compound 0.1 µM)

Nc1ncn(C2CC(O)C(CO)S2)c(=O)n1 (stereo not given) + Cc1ccccc1N=Nc1ccc(NC(=O)c2ccnn2C)c(C)c1
inactive: viability, T/C (second compound 0.1 µM, first compound 0.000949 µM) 125% | viability, T/C (second compound 0.1 µM, first compound 0.003 µM) 103% | viability, T/C [31] 104% | viability, T/C [32] 104% | viability, T/C [33] 98% | viability, T/C [34] 73% | viability, T/C (second compound 0.316 µM, first compound 0.000949 µM) 92.9% | viability, T/C (second compound 0.316 µM, first compound 0.003 µM) 132% | viability, T/C [35] 107% | viability, T/C [36] 100% | viability, T/C [37] 80.5% | viability, T/C [38] 78.2% | viability, T/C (second compound 1 µM, first compound 0.000949 µM) 100% | viability, T/C (second compound 1 µM, first compound 0.003 µM) 146% | viability, T/C [39] 108% | viability, T/C [40] 91% | viability, T/C [41] 99.9% | viability, T/C [42] 102% | viability, T/C (second compound 3.16 µM, first compound 0.000949 µM) 135% | viability, T/C (second compound 3.16 µM, first compound 0.003 µM) 145% | viability, T/C [43] 125% | viability, T/C [44] 130% | viability, T/C [45] 105% | viability, T/C [46] 109% | viability, T/C (second compound 10 µM, first compound 0.000949 µM) 176% | viability, T/C (second compound 10 µM, first compound 0.003 µM) 170% | viability, T/C [47] 157% | viability, T/C [48] 139% | viability, T/C [49] 125% | viability, T/C [50] 127%
> 300 nM: IC50 (second compound 0.1 µM) | IC50 (second compound 0.316 µM) | IC50 (second compound 1 µM) | IC50 (second compound 3.16 µM) | IC50 (second compound 10 µM)
